This is an account of results in paper PMC4567266 (PLoS ONE, 2015).

What is called IC50 is the concentration that inhibits the measured activity by half. A high value points to weaker potency in that assay.

Common to all, as to format: cell-based
In test [1] the test system is THP-1 (a human monocytic leukemia cell line). Kind of test: Cell proliferation assay (WST-8), THP-1. To be noted: for IC50: DMSO less than 1%. As to the method:
(§1) We used THP-1 (a human monocytic leukemia cell line), L929 (a mouse fibroblast cell line), RAW264.7 (a mouse macrophage cell line), and mouse bone marrow-derived macrophages cultured in a flask or plate at 37°C, under a humidified atmosphere of 5% CO2 in air. THP-1 and L929 were obtained from Japan Health Science Foundation. RAW264.7 was purchased from DS Pharma Biomedical Co., Ltd. These cells were cultured in RPMI1640 + 10% FCS consisting of RPMI1640 [+] L-glutamine (Gibco) supplemented with antibiotics (penicillin and streptomycin; Gibco) and 10% fetal calf serum (FCS; Biowest). In cell proliferation assays, they were cultured in flat-bottomed 96-well plates (Corning) in 100 μl/well at a concentration of 1 x 10^5/ml with or without test samples. In the case of mouse peritoneal cells, we employed 1 x 10^6/ml as a cell concentration. After finishing the culture, we added 10 μl of a coloring reagent, WST-8 (Kishida Chemical Co.), which converts to water-soluble colored formazan by the action of a mitochondrial enzyme. Cells were additionally incubated with WST-8 for 3 h and the coloring reaction was stopped by adding 10 μl of 0.1% sodium dodecyl sulfate (SDS) solution. The absorbance of each well was then measured at 450 nm with a Multiskan Ascent plate reader (Labsystems). In principle, we performed cell proliferation assays in duplicate. Half-maximal (50%) inhibitory concentration (IC50) of each test sample was calculated according to the reported formula [15].
(§2) We examined the inhibitory activities of food constituents in cell proliferation assays. Test compounds used in the assays were as follows: curcumin (Wako or Sigma-Aldrich), zerumbone (Wako), genistein (Sigma-Aldrich), chalcone (Wako), corosolic acid (Wako), carnosol (Wako), ursolic acid (Wako), epigallocatechin (Sigma-Aldrich), isoflavone (Wako), apigenin (Wako), chrysin (Wako), flavanone (Wako), resveratrol (Wako), flavone (Wako), quercetin (Wako), daidzein (Wako), and clodronate (Sigma-Aldrich). These compounds were firstly dissolved with dimethyl sulfoxide (DMSO; Wako) and then appropriately diluted with RPMI1640 + 10% FCS to apply the assays. The final concentration of DMSO was adjusted not to exceed 1% at most in cell cultures.
On the technique in general: Formazan colour is commonly taken as a measure of viable cells.

The test system of test [2] is mouse bone marrow-derived macrophages. Kind of test: Cell proliferation assay (WST-8), mouse bone marrow-derived macrophages. The note with it: for IC50: means ± range (n = 2) or standard deviation (n > 2), DMSO less than 1%. As to the method: as §1, §2
The test system of test [3] is L929 (a mouse fibroblast cell line). Kind of test: Cell proliferation assay (WST-8), L929. The note with it: for IC50: means ± range (n = 2) or standard deviation (n > 2), DMSO less than 1%. As to the method:
as §1, §2

The test system of test [4] is RAW264.7 (a mouse macrophage cell line). Kind of test: Cell proliferation assay (WST-8), RAW264.7. To be noted: cultured for 3 days. As to the method:
as §1, with “In the case of mouse peritoneal cells, we employed 1 x 10^6/ml as a cell concentration. After finishing the culture, we added 10 μl of a coloring reagent, WST-8 (Kishida Chemical Co.), which converts to water-soluble colored formazan by the action of a mitochondrial enzyme. Cells were additionally incubated with WST-8 for 3 h and the coloring reaction was stopped by adding 10 μl of 0.1% sodium dodecyl sulfate (SDS) solution.” left out, “In principle, we performed cell proliferation assays in duplicate.” left out
After culturing, they were incubated with WST-8 for 3 h to assess viable cells in the culture. Resultant coloring reaction by WST-8 was measured with a plate-reader at the absorbance of 450 nm. In the vertical axis, the absorbance of only the medium was defined as 0%. Symbols in the Figure represent the percentage of absorbance with curucmin or liposomes to that without the test samples. […]

[5] abbreviates: Homo sapiens, THP-1, means ± range (n = 2) or standard deviation (n > 2).
The mark [6] stands for this setting: means ± range (n = 2) or standard deviation (n > 2).

On to `O=c1c(-c2ccc(O)cc2)coc2cc(O)cc(O)c12` [Genistein, genistein], for which the IC50 was less than 30 µM in test [1] (setting [5]); 16 ± 6.1 µM in test [1] (setting [6]); 29 ± 21.5 µM in test [2] (Mus musculus, Macrophage); 28.2 ± 7.5 µM in test [3] (Mus musculus, L929).
Consider `C[C@H]1[C@H](C)CC[C@]2(C(=O)O)CC[C@]3(C)C(=CC[C@@H]4[C@@]5(C)CC[C@H](O)C(C)(C)[C@@H]5CC[C@]43C)[C@H]12` [Ursolic acid, ursolic acid], for which the IC50 in test [1] (setting [5]) was less than 30 µM; in test [1] (setting [6]), 24.6 ± 3.4 µM; in test [2] (Mus musculus, Macrophage) it was 16.3 ± 4.5 µM; in test [3] (Mus musculus, L929), 30.7 ± 0.8 µM.
Consider `O=C1CC(c2ccccc2)Oc2ccccc21` (stereo not drawn) [Flavanone, flavanone], for which the half-maximal inhibitory concentration (IC50) in test [1] (setting [6]) stood at 55.1 ± 10.9 µM; in test [2] it was 225 ± 66.1 µM; in test [3], 211 ± 29.6 µM.
Regarding `C/C1=C\CC(C)(C)/C=C/C(=O)/C(C)=C/CC1` [Zerumbone, zerumbone], the IC50 was less than 30 µM in test [1] (setting [5]); 16 ± 0.5 µM in test [1] (setting [6]); 32.1 µM in test [2] (Mus musculus, Macrophage); 30.4 ± 0.1 µM in test [3] (Mus musculus, L929).
Take `O=c1cc(-c2ccc(O)cc2)oc2cc(O)cc(O)c12` [Apigenin, apigenin]: the half-maximal inhibitory concentration (IC50) in test [1] (setting [5]) amounted to 37.9 ± 3.9 µM; in test [2] (Mus musculus, Macrophage), 70 ± 19.8 µM; in test [3] (Mus musculus, L929), 46.4 ± 3.3 µM.
With `O=c1c(-c2ccccc2)coc2ccccc12` [Isoflavone, isoflavone], the IC50 in test [1] (setting [5]) is 37.6 ± 11.6 µM; in test [2] (Mus musculus, Macrophage) it was 106 ± 7.8 µM; in test [3] (Mus musculus, L929), 65.5 ± 3.6 µM.
Consider `CC(C)c1cc2c(c(O)c1O)[C@@]13CCCC(C)(C)[C@@H]1C[C@@H]2OC3=O` [Carnosol, carnosol], for which the half-inhibitory concentration (IC50) in test [1] (setting [5]) was less than 30 µM; in test [1] (setting [6]) it was 20.5 ± 2.7 µM; in test [2] (Mus musculus, Macrophage), 63.8 ± 5.5 µM; in test [3] (Mus musculus, L929), 50.1 ± 2.6 µM.
For `O=c1cc(-c2ccccc2)oc2cc(O)cc(O)c12` [Chrysine, chrysin], the IC50 in test [1] (setting [5]) came to 46.8 ± 2.8 µM; in test [2] (Mus musculus, Macrophage) it was 58.2 µM; in test [3] (Mus musculus, L929), 76.3 ± 11 µM.
As for `O=P(O)(O)C(Cl)(Cl)P(=O)(O)O` [Clodronate, clodronate, reference compound], the “Inhibition of THP-1 cell proliferation (in words)” value in test [1] is given as “weaker activity”. Moreover, the IC50 in test [1] (setting [5]) was more than 400 µM; in test [2] (Mus musculus, Macrophage), 25.7 ± 15.6 µM; in test [3] (Mus musculus, L929) it was 336 ± 54.9 µM. In test [2], the “Inhibition of mouse bone marrow-derived macrophage proliferation (in words)” value is “comparable strong activity”. The “Inhibition of L929 cell proliferation (in words)” value in test [3] is “weaker activity”.
On to `O=c1c(-c2ccc(O)cc2)coc2cc(O)ccc12` [Daidzein, daidzein], for which the concentration for half-maximal inhibition (IC50) in test [1] (setting [5]) was more than 400 µM; in test [2] (Mus musculus, Macrophage) it was 65.1 ± 33.5 µM; in test [3] (Mus musculus, L929), 220 ± 57.9 µM.
Regarding `COc1cc(/C=C/C(=O)CC(=O)/C=C/c2ccc(O)c(OC)c2)ccc1O` [Curcumin, diferuloylmethane], the “Inhibition of THP-1 cell proliferation (in words)” value in test [1] is listed as “dose-dependent inhibition”. The half-maximal inhibitory concentration (IC50) in test [1] (setting [6]) is 13 ± 3.2 µM; in test [1] (means ± range (n = 2) or standard deviation (n > 2), listed as curcumin) it was less than 30 µM; in test [2] (Mus musculus, Macrophage) it was 22.4 ± 3.6 µM; in test [3] (Mus musculus, L929), 22.8 ± 10.8 µM. Also, the “Inhibition of RAW264.7 cell proliferation (in words)” value in test [4] was “dose-dependent inhibition”.
As to `O=C(/C=C/c1ccccc1)c1ccccc1` [Chalcone, chalcone], the half-maximal inhibitory concentration (IC50) in test [1] (setting [5]) was less than 30 µM; in test [1] (setting [6]) it was 17.4 ± 1.8 µM; in test [2] (Mus musculus, Macrophage), 104 µM; in test [3] (Mus musculus, L929) it was 69.5 ± 1.2 µM.
`O=c1c(O)c(-c2ccc(O)c(O)c2)oc2cc(O)cc(O)c12` [Quercetin, quercetin]: the IC50 in test [1] (setting [5]) is 125 ± 24.1 µM; in test [2] (Mus musculus, Macrophage), 126 ± 83.4 µM; in test [3] (Mus musculus, L929), 117 ± 32.5 µM.
For `Oc1ccc(/C=C/c2cc(O)cc(O)c2)cc1` [Resveratrol, resveratrol], the IC50 is 64.6 ± 8.5 µM in test [1] (setting [5]); 77.2 ± 13 µM in test [2] (Mus musculus, Macrophage); 84.8 ± 29.1 µM in test [3] (Mus musculus, L929).
As to `C[C@H]1[C@H](C)CC[C@]2(C(=O)O)CC[C@]3(C)C(=CC[C@@H]4[C@@]5(C)C[C@@H](O)[C@H](O)C(C)(C)[C@@H]5CC[C@]43C)[C@H]12` [Corosolic acid, corosolic acid], the concentration for half-maximal inhibition (IC50) in test [1] (setting [5]) was less than 30 µM; in test [1] (setting [6]) it was 18.2 ± 0.2 µM; in test [2] (Mus musculus, Macrophage) it was 19.6 ± 0.6 µM; in test [3] (Mus musculus, L929), 17.7 ± 0.2 µM.
Consider `O=c1cc(-c2ccccc2)oc2ccccc12` [Flavone, flavone], for which the IC50 in test [1] (setting [5]) amounted to 86.9 ± 4.1 µM; in test [2] (Mus musculus, Macrophage), 180 µM; in test [3] (Mus musculus, L929), 34.5 ± 3.4 µM.
Turning to `Oc1cc(O)c2c(c1)O[C@H](c1cc(O)c(O)c(O)c1)[C@H](O)C2` [Epigallocatechin, epigallocatechin], the IC50 in test [1] (setting [5]) was found to be 37 ± 29.6 µM; in test [2] (Mus musculus, Macrophage) it was 157 ± 19.9 µM; in test [3] (Mus musculus, L929), 40.1 ± 3.7 µM.
